Test results reported in US10213445B2, “Compositions and methods of diazeniumdiolate-based prodrugs for treating cancer” (ARIZONA BOARD OF REGENTS ON BEHALF OF THE UNIVERSITY OF …, priority 2014, dated 2019).
One block for each compound: values may come before it.

Legend:
MDA-MB-231 xenografts = experiment: MDA-MB-231-GFP xenograft growth and brain metastasis in nude mice; format: in vivo; settings: daily injection of equimolar doses for five weeks, vs control
Method: The cells were allowed to grow for 14 d, and the animals (40) were randomly divided into four groups (control, aspirin, IPA/NO-aspirin or DEA/NO-aspirin). Treated groups were injected daily with equimolar doses of DEA/NO-aspirin or IPA/NO-aspirin (16 mg kg^−1) or aspirin (9 mg kg^−1)) or with DMSO for the next five weeks.
For examples utilizing mouse tumor model methods, the following procedure was instituted. Analysis of tumor growth was carried out using protocols approved by the Committee on the Ethics of Animal Experiments of the National Cancer Institute (RBB-144) and adhered with the recommendations in the United States National Research Council's “Guide for the Care and Use of Laboratory Animals,” the United States Public Health Service's “Guide for the Care and Use of Laboratory Animals” and the “Policy on Humane Care and Use of Laboratory Animals”. The vivarium was maintained at 23° C. on a 12 h light/12 h dark cycle with ad libitum access to food and water. Nude mice (n=40) under general anesthesia were implanted with 7.5×10^5 MDA-MB-231 cells transfected with GFP by injection underneath the fourth left mammary gland. Prior to implantation, pedal withdrawal and eyelid reflexes were examined to ensure that mice were under stage III of anesthesia. At 14 days post-inoculation, the mice were randomly divided into four groups and treated by daily injection of equimolar doses (10 μL of 100 mM stock) of aspirin (9.00 mg kg^−1), IPA/NO-aspirin (15.8 mg kg^−1) or DEA/NO-aspirin (16.3 mg kg^−1) or with vehicle (DMSO). After five weeks, the tumor size was measured using in vivo fluorescent imaging for quantification of the GFP tag. In brief, mice were under general anesthesia throughout the whole body imaging process, and GFP signals were captured and quantified in an Xenogen IVIS 100 Imaging System according to the manufacturer's protocol. To assess metastasis in the brain, the animals were subsequently sacrificed following the approved method and guidelines.

MDA-MB-231 cells = experiment: Oxidation of DCF (oxidant level) in cells; format: cell-based, human; settings: 100 μM, 37° C., MDA-MB-231 as representative example
Method: DCF loaded cells were treated with IPA/NO-aspirin (blue), DEA/NO-aspirin (green), IPA/NO (magenta), DEA/NO (brown), aspirin (red) or DMSO (0.1%; black) at 37° C., and the fluorescence at 535 nm was measured in a time-dependent manner. Data are plotted as mean±SD (n=4).

BCL-2 = BCL-2 expression; format: cell-based; settings: FIG. 18
ER-α = ER-α levels (mRNA of ER1) in ER-α(−) cells; format: cell-based; settings: FIG. 20
[1] = test system: various cancer cells lines; settings: read-out: IC50 (cytotoxicity); cited from earlier work
[2] = Decomposition kinetics by UV spectrophotometry in PBS; format: physicochemical; settings: for pH dependence of hydrolysis rate: 37° C.
Method: FIGS. 3A and 3B are graphs illustrating the pH-dependence of the rate constant of decomposition of (FIG. 3A) 1 (100 or 200 μM) and (FIG. 3B) 2 (100 μM) at 37° C. in PBS containing 50 μM DTPA measured at 250 nm (mean±SEM, n≥3).
(§1) The rate constants of decomposition were measured spectrophotometrically by monitoring the decrease in absorbance of peaks at ^˜240-250 nm characteristic of the diazeniumdiolate functionality. The hydrolysis medium consisted of the metal chelator diethylenetriaminepentaacetic acid (DTPA, 50 μM) in calcium- and magnesium-free Dulbecco's phosphate-buffered saline (PBS, pH 7.4). UV-visible spectroscopy was performed with a Hewlett-Packard 8453 diode-array spectrophotometer equipped with Agilent 89090A thermostat set to 37° C. The spectrophotometer was blanked after warming the cuvette containing buffer at the appropriate pH in the instrument heat block for 5 min. For esterase-containing reactions, porcine liver esterase (20 μL; Sigma; suspension in 3.2 M (NH4)2SO4, pH 8) was added to the reaction buffer before blanking. Upon addition of IPA/NO (1) or AcOM-IPA/NO (2) (≤10 μL of stock), the cuvette was capped and inverted to mix. Spectra were collected at 0.5- to 60-s intervals for time periods of 2-120 min or until A∞<0.05. Kinetic analysis was performed by fitting the data to an exponential decay (A=ΔAe^−kt+A∞) using KaleidaGraph v.3.1.

porcine liver esterase = experiment: Esterase-catalyzed hydrolysis; format: in vitro ADME
Method: FIGS. 4A-C are graphs illustrating spontaneous hydrolysis (FIGS. 4A and 4B) and esterase-catalyzed hydrolysis (FIG. 4C) of 2 in an embodiment of the invention. In FIG. 4A, spectra were collected every 60 s (10-min intervals shown) after dissolving 2 in PBS (pH 7.4) at 37° C., and only loss of the parent compound was observed. In FIG. 4B, the pH was elevated to 12, and scans were collected every 0.5 s (through 2.5 s and 3.5, 5.5, 9.5, and 54.5 shown). In FIG. 4C, porcine liver esterase (20 μL in 3 mL) was added (pH 7.4), and spectra were collected every 10 s. Hydrolysis of 2 (λmax 236 nm) to 1 (λmax 250 nm) was complete within 40 s (0.067 s^−1) under these conditions. […] Elevation of the intensity near 200 nm indicated formation of autoxidation products such as nitrite. Deaeration inhibited this peak (data not shown).
as §1

[3] = Alkaline hydrolysis at pH 11 followed by NMR; format: physicochemical
Method: Organic products of the hydrolysis of 1 and 2 were quantified by integrating their NMR spectra. For pH 7.4, 3.9 mM solutions in 0.1 M phosphate buffer were employed. For pH 11, 4.9 mM solutions of 1 and 2 in 50 mM sodium carbonate were studied. Samples were run on a Varian Inova 400 MHz NMR with a Dell Precision 390 workstation. The samples were run at 37° C. and water suppression was achieved by using the preset pulse sequence. Peaks were identified by comparison with authentic standards.
Differences in time course as well as stoichiometry in the alkaline hydrolysis of 1 and 2 also matched the expectation based on the HNO/NO yield and rate data. […] Compound 2, on the other hand, completely dissociated within 5 min at 37° C. in a pH 11 carbonate buffer. […] However, the amine was undetectable.

PARP = biological target: T1, PARP (Homo sapiens, UniProt P09874); settings: caspase-3 null MCF-7 cells; cited from earlier work
T1 construct: on PARP activity has been determined in caspase-3 null MCF-7 cells; host or cells: MCF-7
T1 sequence (P09874 whole entry): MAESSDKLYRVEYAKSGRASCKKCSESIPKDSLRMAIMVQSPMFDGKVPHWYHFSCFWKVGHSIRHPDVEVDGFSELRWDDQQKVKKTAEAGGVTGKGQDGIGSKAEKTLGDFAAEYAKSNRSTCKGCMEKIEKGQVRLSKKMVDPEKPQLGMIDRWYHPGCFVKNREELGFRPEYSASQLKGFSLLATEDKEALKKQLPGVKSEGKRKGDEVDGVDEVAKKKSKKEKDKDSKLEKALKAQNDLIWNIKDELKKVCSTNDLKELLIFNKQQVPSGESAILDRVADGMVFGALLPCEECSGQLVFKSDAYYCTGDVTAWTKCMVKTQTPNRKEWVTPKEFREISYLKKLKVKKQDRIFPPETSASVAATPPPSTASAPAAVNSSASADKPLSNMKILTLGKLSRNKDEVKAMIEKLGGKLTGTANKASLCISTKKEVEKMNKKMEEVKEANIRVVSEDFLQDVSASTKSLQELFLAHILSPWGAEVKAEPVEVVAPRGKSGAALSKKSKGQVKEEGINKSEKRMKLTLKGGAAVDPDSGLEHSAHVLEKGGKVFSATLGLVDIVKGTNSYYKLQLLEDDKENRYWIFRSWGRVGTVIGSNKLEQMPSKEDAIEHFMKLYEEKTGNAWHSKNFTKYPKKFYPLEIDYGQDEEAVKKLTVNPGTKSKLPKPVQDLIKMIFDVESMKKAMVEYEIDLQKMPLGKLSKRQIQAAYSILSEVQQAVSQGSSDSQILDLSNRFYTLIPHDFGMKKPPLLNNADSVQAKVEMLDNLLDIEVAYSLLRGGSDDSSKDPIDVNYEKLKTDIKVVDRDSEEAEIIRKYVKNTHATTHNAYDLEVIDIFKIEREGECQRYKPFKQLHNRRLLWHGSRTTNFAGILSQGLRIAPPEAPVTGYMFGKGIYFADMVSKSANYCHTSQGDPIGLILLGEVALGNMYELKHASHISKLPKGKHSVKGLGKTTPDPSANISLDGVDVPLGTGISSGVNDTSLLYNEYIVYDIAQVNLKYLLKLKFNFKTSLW

MB-231 cells = experiment: cells; settings: Homo sapiens, 48 h
Method: In this example, a 3-(4,5-dimethylthiazol-2-yl)-2,5-diphenyltetrazolium bromide (MTT)viability assay was used to evaluate combination therapy to on the cytotoxicity of cancer cells using compound embodiments.
Cells were plated at 8,000-10,000 cells per well in a 96-well plate and grown overnight. […] Thereafter, 10 μL of 5 mg/mL MTT was added to each well, and the plate was incubated for 1 hour at 37° C. After removal of the media, 100 μL of DMSO was added to each well, and the absorbance was recorded at 550 nm. Growth inhibition is reported as the percentage of the corresponding control.

MDA-MB-231 xenograft = settings: SCID mice, 17 and 50 mg kg^−1, compared to control; cited from earlier work
[4] = test system: angiogenesis in mouse tumor specimens; settings: high concentration; cited from earlier work
[5] = test system: vascular endothelial growth factor (VEGF); settings: high concentration; cited from earlier work
[6] = biological target: hypoxia-inducible factor (HIF) 1α (Homo sapiens, UniProt Q16665); settings: high concentration, human breast cancer cells; cited from earlier work
hypoxia-inducible factor (HIF) 1α, sequence (Q16665 whole entry): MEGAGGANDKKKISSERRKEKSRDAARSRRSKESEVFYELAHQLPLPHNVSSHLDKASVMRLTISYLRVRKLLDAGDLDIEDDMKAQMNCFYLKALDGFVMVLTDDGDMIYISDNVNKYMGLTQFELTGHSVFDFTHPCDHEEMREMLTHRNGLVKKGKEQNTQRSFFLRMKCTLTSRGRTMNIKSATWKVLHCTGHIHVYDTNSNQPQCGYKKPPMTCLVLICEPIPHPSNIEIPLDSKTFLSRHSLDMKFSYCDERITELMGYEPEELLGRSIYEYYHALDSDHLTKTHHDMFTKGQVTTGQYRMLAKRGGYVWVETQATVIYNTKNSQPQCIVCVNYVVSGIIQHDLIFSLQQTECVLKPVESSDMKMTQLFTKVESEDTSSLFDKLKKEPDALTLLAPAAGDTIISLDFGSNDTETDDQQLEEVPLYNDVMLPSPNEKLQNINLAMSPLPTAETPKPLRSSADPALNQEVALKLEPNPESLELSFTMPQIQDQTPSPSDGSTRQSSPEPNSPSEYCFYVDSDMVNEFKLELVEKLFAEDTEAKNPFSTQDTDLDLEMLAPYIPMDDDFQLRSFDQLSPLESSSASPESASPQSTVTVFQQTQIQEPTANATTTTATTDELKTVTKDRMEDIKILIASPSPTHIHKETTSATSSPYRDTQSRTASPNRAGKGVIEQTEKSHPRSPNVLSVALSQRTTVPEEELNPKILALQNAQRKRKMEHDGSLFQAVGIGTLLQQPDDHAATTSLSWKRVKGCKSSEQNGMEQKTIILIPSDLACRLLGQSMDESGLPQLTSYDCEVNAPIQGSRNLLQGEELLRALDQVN

[7] = porcine liver esterase 20 μL in 3 mL, pH 7.4

Compound: CC(=O)Oc1ccccc1C(=O)O [aspirin, reference compound]
size of the primary tumor (GFP fluorescence intensity, tumor mass) (MDA-MB-231 xenografts): did not significantly decrease
oxidation of DCF (fluorescence intensity) (MDA-MB-231 cells): ineffective compared to control
BCL-2 expression (BCL-2): induce BCL-2 expression
ER-α levels (ER-α): increases ERα levels
IC50 [1]: > 1000 µM

Compound: CC(=O)OCO/N=[N+](\[O-])NC(C)C [Compound 2, O^2-(acetoxymethyl)1-(isopropylamino)diazen-1-ium-1,2-diolate]
pH dependence of hydrolysis rate ([2]; PBS with 50 μM DTPA): essentially first order in hydroxide ion concentration between pH 5 and 11
hydrolysis rate relative to 1 ([2]; physiological pH): an order of magnitude slower
rate of hydrolysis of 2 to 1 (porcine liver esterase; [7]): 0.067 s⁻¹
time to complete hydrolysis of 2 to 1 (porcine liver esterase; [7]): ≤ 40 s
time to complete dissociation ([3]; 37° C., pH 11 carbonate buffer): ≤ 5 min

rate of decay of 1 ([2]; PBS with 50 μM DTPA, 37° C. (FIG. 3A)): 0.0012 s⁻¹
rate of decay of 1 (porcine liver esterase; 1 formed from 2 with esterase, pH 7.4 (FIG. 4C)): 0.0033 s⁻¹
hydrolysis at pH 11 ([3]; pH 11): hydrolyzed slowly
hydrolysis rate relative to 2 (more slowly) ([3]; pH 11): 100 fold
Compound: CC(C)N[N+]([O-])=N[O-].[Na+] [Compound 1, O^2-Sodium 1-(N-Isopropylamino)diazen-1-ium-1,2-diolate, reference compound]
pH dependence of hydrolysis rate ([2]; PBS with 50 μM DTPA): slowed as the pH was increased from 3 to 10, with a small increase in rate thereafter
oxidation of DCF (fluorescence intensity) (MDA-MB-231 cells): oxidized DCF, but to a much reduced extent

Compound: CCN(CC)[N+]([O-])=N[O-].[Na+] [DEA/NO, O^2-Sodium 1-(N,N-Diethylamino)diazen-1-ium-1,2-diolate]
oxidation of DCF (fluorescence intensity) (MDA-MB-231 cells): oxidized DCF, but to a much reduced extent
inhibitory effect on PARP activity (PARP): rapid, but required rather high concentrations of donor

Compound: CC/C(=C(\c1ccccc1)c1ccc(OCCN(C)C)cc1)c1ccccc1 [tamoxifen]
viability at 10 µM (MB-231 cells): 76%

Compound: [Na+].[Na+].[O-][N+]([O-])=NO [Angeli's salt, Na2N2O3]
tumor growth (MDA-MB-231 xenograft): some inhibition of tumor growth
inhibitory effect on PARP activity (PARP): rapid, but required rather high concentrations of donor
angiogenesis [4]: inhibited angiogenesis
serum VEGF levels [5]: decreased
HIF 1α [6]: inhibited
